Measurements reported in patent US7348301B2, “Lysozyme-based method and composition to control the growth of microorganisms in aqueous systems” (Buckman Laboratories International, Inc., priority 2006, dated 2008).

Experiments:
[1] = test system: Chlorella sp. (ATCC 7516); assay: Evaluation of algaecidal activity (MIC, checkerboard synergy) against Chlorella sp.; type: cell-based; settings: for [A]/MICA + [B]/MICB (Fractional Inhibitory Concentration Index, FIC): Chlorella sp., <1 denotes synergy; for MIC (ppm product): Chlorella sp. (ATCC 7516), 14 days at 24 C, 16 h light/8 h darkness, enzyme alone
Protocol: (§1) A. Evaluation of Algaecidal Activity. This test method provides a technique for testing compounds for their effectiveness to inhibit (repress) algae growth.
(§2) Cell suspension from a culture grown in modified Allen's medium for 14 days or as needed to attain a desired cell mass of Chlorella sp. (ATCC 7516) or Phormidium faveolarum (UTEX 427). The inoculum is calibrated at 82% transmittance measured at 590 nanometers wavelength before inoculation.
(§3) Sterilize the medium in the autoclave for 20 minutes at 15 pounds pressure (121° C.). After autoclaving, cool medium to 45-50° C. and dispense 5 ml of medium per test tube, then add the compound and the inoculum.
(§4) Prepare a stock solution in water of the compound to be tested. The concentration of the stock solution is dependent on the largest dosage desired to be tested. Dilute the stock solution to obtain dosages smaller than that chosen for the stock solution. A maximum amount of 100 microliters of stock solution or the corresponding dilution should be added per test tube.
• Add 100 microliters of inoculum per test tube, per type of medium and type of inoculum. Incubation: • Place the test tubes containing the treatments in an incubator set at 24° C. Light is provided by plant growth fluorescent tubes set to provide 16 h of light and 8 h of darkness. […] The minimum inhibitory concentration (MIC) of the compound is the smallest dosage showing negative algae growth. Synergy Evaluation:
Synergy was measured by checkerboards dilutions (Yan and Hancock, 2001), in which one compound is diluted along the rows of test tubes and the other is diluted along the columns. This method focuses on looking for a reduction in the MIC of each component in the presence of the other.

[2] = test system: Phormidium faveolarum (UTEX 427); assay: Evaluation of algaecidal activity (MIC, checkerboard synergy) against Phormidium faveolarum; type: cell-based; settings: <1 denotes synergy
Protocol: as §1, §2, §3, §4
• Add 100 microliters of inoculum per test tube, per type of medium and type of inoculum. Incubation: • Place the test tubes containing the treatments in an incubator set at 24° C. […]
Synergy was measured by checkerboards dilutions (Yan and Hancock, 2001), in which one compound is diluted along the rows of test tubes and the other is diluted along the columns. […]

**Q.** Which “[A]/MICA + [B]/MICB (Fractional Inhibitory Concentration Index, FIC)” value ([1]; Example 10, 14 days) does the source give for `[Cl-].[Na+]` [Sodium Chloride] here?
**A.** 1.000

**Q.** And the “[A]/MICA + [B]/MICB (Fractional Inhibitory Concentration Index, FIC)” value ([2]; Example 11, 14 days)?
**A.** 1.00

**Q.** Which “[A]/MICA + [B]/MICB (Fractional Inhibitory Concentration Index, FIC)” value ([1]; Example 1, 18 days) does the source give for “Benzalkonium Chloride [reference compound]” here?
**A.** 1.000

**Q.** And the “[A]/MICA + [B]/MICB (Fractional Inhibitory Concentration Index, FIC)” value ([2]; Example 2, 18 days)?
**A.** 1.00

**Q.** “Lysozyme Chloride [Lysozyme Chloride (MP Biomedicals)]” was tested. Which “MIC (ppm product)” value [1] did it give?
**A.** 0.1-0.4 ppm product

**Q.** With “Lysozyme Chloride [Lysozyme Chloride (NutriScience)]” as the compound, how does the “MIC (ppm product)” value [1] read?
**A.** 0.4-0.7 ppm product

**Q.** For Lysozyme [Lysozyme (Sigma)], which “MIC (ppm product)” value [1] is on record?
**A.** 0.4-0.7 ppm product
